Measured values as given in patent US20220117958A1, “COMPOSITIONS AND METHODS FOR INHIBITING ACSS2” (THE TRUSTEES OF THE UNIVERSITY OF PENNSYLVANIA, priority 2018, published 2022).
Values after ≈ are worked out from the molar mass of the structure shown. Values joined by “and” are separate entries in the source; they are usually repeats but may differ in a detail not shown here. Identical values can stand only once. Like-named read-outs stand apart in the source and are kept apart here. Marks after values point to notes of the source that are not given here.

Assays:
[1] = Microsomal stability assay (half-life), human; type: in vitro ADME; conditions: Human microsomes, read-out: Microsomal stability T1/2
Excerpt: (§1) Table 20 provides results of in vitro and in vivo pharmacokinetics performed for each of the represented compounds.

[2] = In vivo PK, IV dose, Terminal - brain (brain availability); parameters: species or system Rat (SD); conditions: for Brain concentration, mean / Brain concentration, individual animal: IV 1 mg/kg
Method: Table 3 and FIG. 5 depict the brain availability of ADG I-204, ADG I-205, ADG I-206, and ADG I-207 after IV administration of 1 mg/kg dose.

[3] = In vivo PK, oral gavage, plasma; parameters: species or system Rat (SD); conditions: Rat, PO 5 mg/kg, BQL limit 1.00 ng/mL, listed as ADG I-206, 5 mg/kg
[4] = Microsomal stability assay (half-life), mouse; type: in vitro ADME; conditions: Mouse (CD1) microsomes, read-out: Microsomal stability T1/2
Excerpt: as §1

[5] = Turbidity-based aqueous solubility; type: physicochemical; conditions: aqueous solution (composition not given), kinetic from dmso stock, read-out: highest soluble concentration
Excerpt: as §1

[6] = In vivo PK, oral gavage, plasma; parameters: species or system Rat (SD)
Excerpt: as §1
(§2) Tables 4 and 5 depict the summary of rat plasma sample concentrations after administration of ADG I-204. FIG. 6 provides a summary of rat plasma and brain concentrations.

[7] = Microsomal stability assay (half-life), rat; type: in vitro ADME; conditions: Rat (SD) microsomes, read-out: Microsomal stability T1/2
Excerpt: as §1

[8] = Protein binding via Rapid Equilibrium Dialysis - plasma; type: in vitro ADME; conditions: Rat (SD) plasma, 2 μM
Excerpt: as §1

[9] = In vivo PK, IV dose, plasma; parameters: species or system Rat (SD); conditions: for Plasma concentration, mean / Plasma concentration, individual animal: IV 1 mg/kg
Excerpt: as §1, §2

H3K9ac = assay: Western blot, differentiated CAD cell lysates, H3K9ac levels; type: cell-based; conditions: differentiated CAD cells, DMSO = 100.00%
Excerpt: as §1

## CNC(=O)Nc1ccc2nc(-c3cccs3)c(-c3cccs3)nc2c1 [ADG-206, 1-(2,3-di(thiophen-2-yl)quinoxalin-6-yl)-3-methylurea]
[1]
  half-life at 2 μM: 43.3 min
[2]; Rat (SD), 1 hr, listed as ADG I-206, 1 mg/kg
  Brain concentration, mean: 67 ng/g
[2]; Rat (SD), 4 hr, BQL limit 10.0 ng/g (204, 206), 20.0 ng/g (205, 207)
  Brain concentration, mean: BQL
[2]; Rat (SD), 8 hr, BQL limit 10.0 ng/g (204, 206), 20.0 ng/g (205, 207)
  Brain concentration, mean: BQL
[2]; Rat (SD), 24 hr, BQL limit 10.0 ng/g (204, 206), 20.0 ng/g (205, 207)
  Brain concentration, mean: BQL
[2]; Rat, 0.0830 hr, third animal received only 70% of the test article, listed as ADG I-206, 1 mg/kg
  Brain concentration, individual animal: 1080 ng/g and 1050 ng/g and 455*** ng/g
[2]; Rat, 1.00 hr, listed as ADG I-206, 1 mg/kg
  Brain concentration, individual animal: 57.6 ng/g and 74.3 ng/g
[2]; Rat, 4.00 hr, BQL limit 10.0 ng/g (204, 206), 20.0 ng/g (205, 207)
  Brain concentration, individual animal: BQL
[2]; Rat, 8.00 hr, BQL limit 10.0 ng/g (204, 206), 20.0 ng/g (205, 207)
  Brain concentration, individual animal: BQL
[2]; Rat, 24.0 hr, BQL limit 10.0 ng/g (204, 206), 20.0 ng/g (205, 207)
  Brain concentration, individual animal: BQL
[2]; SD, rat, brain, iv, 1 mg/kg, Rat (SD), 0.083 hr
  concentration at 0.083 h: 862 ng/g
[2]; SD, rat, brain, iv, 1 mg/kg, Rat (SD), 1 hr, read-out: Brain concentration, mean
  concentration at 1 h: 66.9 ng/g
[2]; SD, rat, brain, iv, 1 mg/kg, Rat, 1.00 hr, read-out: Brain concentration, individual animal
  concentration at 1 h: 68.8 ng/g
[3]; 0.250 hr
  Plasma concentration, individual animal: BQL
[3]; 0.500 hr
  Plasma concentration, individual animal: 2.16 ng/mL and 1.93 ng/mL
[3]; 1.00 hr
  Plasma concentration, individual animal: 9.00 ng/mL and 6.94 ng/mL
[3]; 4.00 hr
  Plasma concentration, individual animal: 17.2 ng/mL and 8.32 ng/mL
[3]; 8.00 hr
  Plasma concentration, individual animal: 8.89 ng/mL
[4]
  half-life at 2 μM: 4.39 min
[5]
  solubility: 5 µM (≈ 1.83 µg/mL)
[6]; Rat (SD), PO 5 mg/kg, 24 hr, BQL = below quantitation limit (1.00 ng/mL)
  Plasma concentration, mean: BQL
[6]; Rat, PO 5 mg/kg, 24.0 hr, BQL limit 1.00 ng/mL
  Plasma concentration, individual animal: BQL
[6]; SD, rat, plasma, po, 5 mg/kg, Rat (SD), 0.25 hr, BQL = below quantitation limit (1.00 ng/mL), read-out: Plasma concentration, mean
  concentration at 0.25 h: 1.47 ng/mL
[6]; SD, rat, plasma, po, 5 mg/kg, Rat (SD), 0.5 hr, BQL = below quantitation limit (1.00 ng/mL), read-out: Plasma concentration, mean
  concentration at 0.5 h: 2.32 ng/mL
[6]; SD, rat, plasma, po, 5 mg/kg, Rat (SD), 1 hr, BQL = below quantitation limit (1.00 ng/mL), read-out: Plasma concentration, mean
  concentration at 1 h: 7.14 ng/mL
[6]; SD, rat, plasma, po, 5 mg/kg, Rat (SD), 4 hr, BQL = below quantitation limit (1.00 ng/mL)
  concentration at 4 h: 12.8 ng/mL
[6]; SD, rat, plasma, po, 5 mg/kg, Rat (SD), 8 hr, BQL = below quantitation limit (1.00 ng/mL), read-out: Plasma concentration, mean
  concentration at 8 h: 12.2 ng/mL
[6]; SD, rat, plasma, po, 5 mg/kg, Rat, 0.250 hr, BQL limit 1.00 ng/mL, read-out: Plasma concentration, individual animal
  concentration at 0.25 h: 1.47 ng/mL
[6]; SD, rat, plasma, po, 5 mg/kg, Rat, 0.500 hr, BQL limit 1.00 ng/mL, read-out: Plasma concentration, individual animal
  concentration at 0.5 h: 2.86 ng/mL
[6]; SD, rat, plasma, po, 5 mg/kg, Rat, 1.00 hr, BQL limit 1.00 ng/mL, read-out: Plasma concentration, individual animal
  concentration at 1 h: 5.47 ng/mL
[6]; SD, rat, plasma, po, 5 mg/kg, Rat, 8.00 hr, BQL limit 1.00 ng/mL, read-out: Plasma concentration, individual animal
  concentration at 8 h: 15.6 ng/mL
[7]
  half-life at 2 μM: 6.36 min
[8]
  Protein binding, plasma: % Protein free: 0.6565 % Protein free
[9]; Rat (SD), 8 hr, terminal, listed as ADG I-206, 1 mg/kg
  Plasma concentration, mean: 5 ng/mL
[9]; Rat (SD), 24 hr, terminal, BQL limit 1.00 ng/mL (ADG I-205: 2.00 ng/mL)
  Plasma concentration, mean: BQL
[9]; Rat, 0.0830 hr, terminal, third animal received only 70% of the test article, listed as ADG I-206, 1 mg/kg
  Plasma concentration, individual animal: 1500 ng/mL and 1160 ng/mL and 610*** ng/mL
[9]; Rat, 0.500 hr, not terminal (animals 4, 5 and 6), listed as ADG I-206, 1 mg/kg
  Plasma concentration, individual animal: 7310** ng/mL and 527 ng/mL and 507 ng/mL
[9]; Rat, 1.00 hr, terminal, listed as ADG I-206, 1 mg/kg
  Plasma concentration, individual animal: 177 ng/mL and 142 ng/mL
[9]; Rat, 4.00 hr, terminal, BQL limit 1.00 ng/mL (ADG I-205: 2.00 ng/mL), listed as ADG I-206, 1 mg/kg
  Plasma concentration, individual animal: 4.19 ng/mL and 1.81 ng/mL
[9]; Rat, 8.00 hr, terminal, BQL limit 1.00 ng/mL (ADG I-205: 2.00 ng/mL), listed as ADG I-206, 1 mg/kg
  Plasma concentration, individual animal: BQL and 1.44 ng/mL and 8.52 ng/mL
[9]; Rat, 24.0 hr, terminal, BQL limit 1.00 ng/mL (ADG I-205: 2.00 ng/mL)
  Plasma concentration, individual animal: BQL
[9]; SD, rat, plasma, iv, 1 mg/kg, Rat (SD), 0.083 hr, terminal, read-out: Plasma concentration, mean
  concentration at 0.083 h: 1090 ng/mL
[9]; SD, rat, plasma, iv, 1 mg/kg, Rat (SD), 0.500 hr, not a terminal time point (animals 4, 5 and 6)
  concentration at 0.5 h: 2780 ng/mL
[9]; SD, rat, plasma, iv, 1 mg/kg, Rat (SD), 1 hr, terminal, read-out: Plasma concentration, mean
  concentration at 1 h: 165 ng/mL
[9]; SD, rat, plasma, iv, 1 mg/kg, Rat (SD), 4 hr, terminal, read-out: Plasma concentration, mean
  concentration at 4 h: 3 ng/mL
[9]; SD, rat, plasma, iv, 1 mg/kg, Rat (SD), 8 hr, terminal, read-out: Plasma concentration, mean
  concentration at 8 h: 4.98 ng/mL
[9]; SD, rat, plasma, iv, 1 mg/kg, Rat, 1.00 hr, terminal, read-out: Plasma concentration, individual animal
  concentration at 1 h: 176 ng/mL
H3K9ac; 1 uM
  H3K9ac levels normalized to H3 and DMSO control: 46.94%
H3K9ac; 5 uM
  H3K9ac levels normalized to H3 and DMSO control: 35.39%
H3K9ac; 10 uM
  H3K9ac levels normalized to H3 and DMSO control: 19.49%
H3K9ac; 20 uM
  H3K9ac levels normalized to H3 and DMSO control: 8.45%
H3K9ac; 50 uM
  H3K9ac levels normalized to H3 and DMSO control: 5.83%
H3K9ac; 100 uM
  H3K9ac levels normalized to H3 and DMSO control: 1.24%
